This note sets out measurements from patent US20020119995A1, “Inverse thiazolylamide derivatives” (priority 2000, published 2002).

Structures are written as SMILES. Where two headings read alike, the source gives them in different places.

The test system of one experiment is HSV-2 G. The experiment can be described thus: anti-HSV screening test (cytopathogenic effect, fluorescein diacetate readout) in Vero cells, HSV-2 G. It counts as cell-based. The conditions noted are these: read-out: IC50 [μM] HSV-2 G/Vero. As for the experimental part:
(§1) HSV (HSV-1 Walki, HSV-1F or HSV-2G) was cultivated on Vero cells (ATCC CCL-81) under the following conditions. The cells were grown in M199 medium (5% foetal calf serum, 2 mM glutamine, 100 IU/ml penicillin, 100 μg/ml streptomycin) in cell culture bottles at 37° C. and 5% CO2. The cells were split twice per week, in each case 1:4. For the infection, the medium was removed, the cells were washed with Hank's solution, detached using 0.05% trypsin, 0.02% EDTA (Seromed L2143) and incubated at a density of 4×10^5 cells per ml under the abovementioned conditions for 24 hours. The medium was then removed and the virus solution was added at an m.o.i. of <0.05 in a volume of 2 ml per 175 cm^2 of surface. The medium was incubated under the conditions mentioned for one hour and then made up to a volume of 50 ml per 175 cm^2 bottle. […] The virus was released by freezing (−80° C.) and thawing (37° C.) the cultures twice. Cell debris was removed by centrifugation (300 g, 10 min, 4° C.) and the supernatant was frozen down in aliquots at −80° C.
(§2) The anti-HSV action was determined in a screening test system in 96-well microtitre plates using various cell lines of neuronal, lymphoid and epithelial origin, such as, for example, Vero (kidney cell line of the green monkey), MEF (murine embryonal fibroblasts), HELF (human embryonal fibroblasts), NT2 (human neuronal cell line) or Jurkat (human lymphoid T-cell line).
(§3) The substances (50 mM), dissolved in DMSO (dimethyl sulphoxide), are examined on microtitre plates (for example 96-well MTP) in final concentrations of 250-0.5 μM (micromolar) in two replications (4 substances/plate). In the case of potent substances, the dilutions are continued for several plates up to 0.5 pM (picomolar). Also examined are toxic and cytostatic effects of the substances. After an appropriate dilution of the substances (1:2) on the microtitre plate in medium, a suspension of cells ([…] cells per well) such as, for example, of Vero cells in M199 (medium 199) with 5% foetal calf serum, 2 mM glutamine and optionally 100 IU/ml penicillin and 100 μg/ml streptomycin or of MEF cells in EMEM (Eagle's Minimum Essential Medium) with 10% foetal calf serum, 2 mM glutamine and optionally 100 IU/ml penicillin and 100 μg/ml streptomycin, or of HELF cells in EMEM with 10% foetal calf serum, 2 mM glutamine and optionally 100 IU/ml penicillin and 100 μg/ml streptomycin, or of NT2 and Jurkat cells in DMEM ([…] glucose plus pyridoxin) with 10% foetal calf serum, 2 mM glutamine, 1 mM sodium pyruvate, non-essential amino acids and optionally 100 IU/ml penicillin and 100 μg/ml streptomycin, is added to each well and the cells in the relevant wells are infected with an appropriate amount of virus (HSV-1 F or HSV-2 G having an m.o.i. (multiplicity of infection) of 0.0025 for HELF, Vero and MEF cells and an m.o.i. of 0.1 for NT2 and Jurkat cells). The plates are then incubated at 37° C. in a CO2 incubator (5% CO2) for several days. […] The plates are initially evaluated visually using a microscope and then analysed using a fluorescent dye. To this end, the cell supernatant of all wells of the MTP is aspirated and the wells are filled with 200 μl of PBS wash solution. The PBS is then aspirated and all the wells are filled with 200 μl of fluorescent dye solution (fluorescein diacetate, 10 μg/ml in PBS). After an incubation time of 30-90 min, the test plates are read in a fluorescence detector at an excitation wavelength of 485 nm and an emission wavelength of 538 nm.
Background: Damage to the host cells serves as the signal in cytopathic effect assays.

Another experiment has as its system HSV-1 F. The experiment can be described thus: anti-HSV screening test (cytopathogenic effect, fluorescein diacetate readout) in Vero cells, HSV-1 F. Format: cell-based. The conditions noted are these: read-out: IC50 [μM] HSV-1 F/Vero. As for the experimental part:
as §1, §2, §3

The subject of another experiment is HSV-1. Kind of experiment: in-vivo action: survival of intranasally HSV-infected mice. Details: species or system BALB/cABom strain. The conditions noted are these: HSV-1, intranasal infection 5×10^4 Pfu, female BALB/cABom mice; treated 3 times per day for 5 days from 6 hours after infection; from survival curves. How it is done:
6-week-old female mice, BALB/cABom strain were obtained from a commercial breeder (Bomholtgard Breeding and Research Centre Ltd.).
The animals were anaesthetized with diethyl ether (Merck) in a sealed glass vessel. 50 μl of a dilution of the virus stock (infection dose 5×10^4 Pfu) were introduced into the nose of the anaesthetized animals using an Eppendorf pipette. In 90-100% of the animals, this infection dose causes death by a generalized infection with prominent respiratory and central-nervous symptoms on average after 5 to 8 days.
6 hours after the infection, the animals were treated with doses of 0.1-100 mg/kg of body mass, 3 times per day, at 7 a.m., 2 p.m. and 7 p.m., for a period of 5 days. The substances were pre-dissolved in DMSO and resuspended in tylose/PBS (Hoechst) (final concentration 1.5% DMSO, 0.5% tylose in PBS).
After the last administration, the animals were monitored further and the time of death was determined.

Setting [1] is: Human alphaherpesvirus 2, HSV-2 G, Vero cells, half-maximal fluorescence intensity with respect to the non-infected cell control.
[2] abbreviates: Human alphaherpesvirus 1, HSV-1 F, Vero cells, half-maximal fluorescence intensity with respect to the non-infected cell control.

With `Cc1nc(C(C)C(=O)Nc2ccc(-c3ccccc3)cc2)sc1S(N)(=O)=O` (centres unmarked) [Example 1, 2-[5-(Aminosulphonyl)-4-methyl-1,3-thiazol-2-yl]-N-(1,1′-biphenyl-4-yl)-propanamide], the IC50 in the experiment with HSV-2 G (setting [1]) was found to be 0.03 µM; with HSV-1 F (setting [2]), 0.05 µM.

For the compound `Cc1nc(C(C)C(=O)Nc2ccc(-c3ccccn3)cc2)sc1S(N)(=O)=O` (centres unmarked) [Example 2, 2-[5-(Aminosulphonyl)-4-methyl-1,3-thiazol-2-yl]-N-[4-(2-pyridinyl)-phenyl]propanamide], the IC50 in the experiment on HSV-2 G (setting [1]) came to 0.4 µM; in the experiment on HSV-1 F (setting [2]), 0.2 µM.

Take `Cc1nc(C(C)C(=O)Nc2ccc(-c3cc(F)ccc3F)cc2)sc1S(N)(=O)=O` (centres unmarked) [Example 3, 2-[5-(Aminosulphonyl)-4-methyl-1,3-thiazol-2-yl]-N-(2′,5′-difluoro-1,1′-biphenyl-4-yl)propanamide]: the IC50 in the experiment with HSV-2 G (Human alphaherpesvirus 2, Vero) is 0.01 µM; with HSV-1 F (Human alphaherpesvirus 1, Vero), 0.05 µM. Further, in the experiment on HSV-1, the “ED90 (90% of the animals survive at this dose)” value is “about 3 mg/kg”.

For the compound `CCOc1ccc(NC(=O)C(C)c2nc(C)c(S(N)(=O)=O)s2)cc1` (centres unmarked) [Example 4, 2-[5-(Aminosulphonyl)-4-methyl-1,3-thiazol-2-yl]-N-(4-ethoxyphenyl)-propanamide], the IC50 in the experiment on HSV-2 G (setting [1]) and in the experiment on HSV-1 F (setting [2]) was 0.75 µM throughout.

On to `CNS(=O)(=O)c1sc(C(C)C(=O)Nc2ccc(-c3ccccc3)cc2)nc1C` (centres unmarked) [Example 5, N-(1,1′-Biphenyl-4-yl)-2-{4-methyl-5-[(methylamino)sulphonyl]-1,3-thiazol-2-yl}propanamide], for which the IC50 with HSV-2 G (setting [1]) is 0.06 µM; with HSV-1 F (setting [2]) it was 0.1 µM.
